Experimental data published in patent US20160361443A1, “Ultrasound Molecular Imaging With Targeted Biocompatible Microbubbles” (University of Pittsburgh - Of the Commonwealth System of …, priority 2015, published 2016).
Values joined by “and” are separate entries in the source; they are usually repeats but may differ in a detail not shown here. Equal values may be shown once. “Also recorded” adds a separate entry of the source. Where no end group is shown, it is not given here. Side-chain parts run from the residue outwards. microbubble albumin shell = not defined here

T1: E-selectin (Rattus norvegicus, UniProt P98105)
T1 construct: Immunofluorescent staining in all rats consistently confirmed microvascular E-selectin and ICAM-1 expression in postischemic myocardium; from tissue
T1 sequence (P98105 22-549): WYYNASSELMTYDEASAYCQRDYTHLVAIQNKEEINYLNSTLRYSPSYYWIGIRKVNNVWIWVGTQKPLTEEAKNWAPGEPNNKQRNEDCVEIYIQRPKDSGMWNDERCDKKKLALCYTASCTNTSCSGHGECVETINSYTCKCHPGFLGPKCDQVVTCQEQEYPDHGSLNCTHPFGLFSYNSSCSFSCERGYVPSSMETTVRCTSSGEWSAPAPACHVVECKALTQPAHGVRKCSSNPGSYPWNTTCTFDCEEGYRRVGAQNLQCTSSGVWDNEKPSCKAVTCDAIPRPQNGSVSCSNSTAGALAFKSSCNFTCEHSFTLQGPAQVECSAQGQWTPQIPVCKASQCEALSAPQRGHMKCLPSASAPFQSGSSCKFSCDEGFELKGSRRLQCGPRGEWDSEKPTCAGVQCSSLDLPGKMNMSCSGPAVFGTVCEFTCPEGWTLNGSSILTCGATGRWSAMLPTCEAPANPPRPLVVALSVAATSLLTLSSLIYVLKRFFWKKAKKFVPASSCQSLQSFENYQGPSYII

T2: human E-selectin on TNFα-activated HUVEC cells (human, UniProt P16581 22-610)
T2 construct: whole, on cells
T2 sequence (looked up): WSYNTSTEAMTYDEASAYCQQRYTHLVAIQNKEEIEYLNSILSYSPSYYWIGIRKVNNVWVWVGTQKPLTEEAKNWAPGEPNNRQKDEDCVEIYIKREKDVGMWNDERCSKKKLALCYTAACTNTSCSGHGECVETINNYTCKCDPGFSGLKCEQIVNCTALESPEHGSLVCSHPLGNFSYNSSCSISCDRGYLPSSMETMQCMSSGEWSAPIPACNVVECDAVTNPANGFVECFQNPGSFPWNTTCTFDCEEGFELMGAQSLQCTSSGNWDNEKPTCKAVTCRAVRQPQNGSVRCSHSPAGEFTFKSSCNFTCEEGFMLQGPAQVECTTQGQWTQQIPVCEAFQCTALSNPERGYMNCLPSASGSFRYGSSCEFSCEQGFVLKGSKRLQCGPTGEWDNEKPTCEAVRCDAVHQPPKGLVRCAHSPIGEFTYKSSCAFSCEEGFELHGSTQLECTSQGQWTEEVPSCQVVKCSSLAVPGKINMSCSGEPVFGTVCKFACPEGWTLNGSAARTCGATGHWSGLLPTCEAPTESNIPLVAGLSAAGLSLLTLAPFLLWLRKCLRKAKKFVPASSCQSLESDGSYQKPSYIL


Legend:
[1] = test system: Rat heart microvascular ECs; assay: Parallel plate perfusion chamber, MB adhesion to cultured endothelial cells; format: cell-based; conditions: for MB adhesion to inflamed (activated) ECs: IL-1b-activated ECs; for MB adhesion to inflamed (activated) ECs / MB adhesion to noninflamed (normal) ECs: 5×10^6 MB in 1 mL, wall shear rate 200 s-1; for MB adhesion to activated versus normal ECs (in words): in vitro flow chamber
Protocol: (§1) Targeted biodegradable polymer MB (3.4±1.3μm) were prepared bearing a 12-mer synthetic peptide on the surface with specific E-selectin affinity (MBESEL). See, FIG. 7. Control MB had scrambled peptide (MBCTL) or non-specific IgG (MBIgG). MB adhesion to cultured rat endothelial cells (EC) was assessed in a parallel plate flow system (n=3/condition). Intravital microscopy of rat cremaster microcirculation was performed after i.v. injection of each MB type under basal or activated conditions (scrotal TNF 5μg) (n=3 rats/condition). To determine if binding events could be imaged, 6 rats had 15 min coronary artery occlusion. After 4 hrs reflow, each rat received separate i.v. boluses of MBESEL, MBCTL, and MBIgG. Non-linear echo imaging was performed 3 and 3.5 min later. Videointensity (VI) differences between the 2 time points was attributed to target-specific signal.
Cultured rat heart microvessel endothelial cells were placed on glass cover slips. The cells were then stimulated with IL-1β (2 ng/ml) for 4 hrs and then perfused with 1 mL microbubbles (5×10^6 /mL)-MBE-SEL or MBCTL. These microbubbles were then subjected to a wall shear rate of 200 sec-1. See, FIG. 8. 20 random fields (n=3) were assessed. […] FIGS. 9A and 9B.
A parallel plate perfusion chamber was used to quantify MB adhesion to cultured endothelial cells (ECs).12 Rat heart microvascular ECs (VEC Technologies, Rensselaer, N.Y.) were grown to confluence on 25 mm 3 75 mm glass coverslips. Cells were incubated for 5 hours with 5 ng/mL interleukin-1b (Sigma-Aldrich, St. Louis, Mo.) to cause activation. Coverslips with normal or IL-1b-activated ECs ([…]; 3/condition) were mounted in the chamber and perfused with one of the three MB species (5×10^6 MB in 1 mL culture medium) at a wall shear rate of 200 s-1, followed by an additional 3 mL of plain culture medium. The chamber was then mounted on a microscope (Nikon TE200) and 20 random bright-field images (3 100) of the ECs were captured (ORCA285, Hamamatsu, Bridgewater, N.J.). The mean number of attached MBs/ECs was counted offline.

[2] = test system: rat cremaster muscle microcirculation; assay: Intravital microscopy of MB adhesion in vivo; conditions: for MB adhesion to inflamed microcirculation: TNF-a 5 μg intrascrotal; for MB adhesion to normal or inflamed microcirculation (in words): basal or TNF-a activated
Protocol: as §1
An intravital microscopy of rat cremaster muscle microcirculation was performed after intravenous injection of 1×10^8 MBE-SEL or MBCTL (n=3 per condition). Non-inflamed: 4 hrs after intrascrotal injection of saline. Inflamed : 4 hrs after intrascrotal injection of TNF-α (5 μg). Real-time images were captured and microbubble adhesion was quantified in venules at 5 minutes after microbubble injection in 20 random fields. See, FIGS. 10A and 10B.
Microscopy of the rat cremaster muscle microcirculation was used for real-time visualization of MB adhesion in vivo. Sprague Dawley rats (100-120 g) received intrascrotal injection of either tumor necrosis factor a (n=9, 5 μg, Thermo Scientific, Waltham, Mass.) or 1 mL saline (n=9). Four hours later, the cremaster muscle was exteriorized and mounted on an inverted fluorescent microscope (Nikon TE200). Each rat received one intravenous injection (1×10^8 MB) of either MBESEL or control MBs (MBCTL or MBIgG) in […], followed by a […] ([…], 3 rats per MB type/inflammatory status combination, total 6 groups). Five minutes after injection, bright-field microscopic imaging of 20 random fields was performed to identify microvessels, and epi-illumination fluorescent imaging was performed to identify MBs, followed by pentobarbital overdose. Images were analyzed offline for MB adhesion per field of view, defined as MB immobility lasting≧30 seconds.
(§2) All protocols were approved by the Institutional Animal Care and Use Committee at the University of Pittsburgh. […] (Sprague Dawley, Harlan Laboratories, Indianapolis, Ind.) were anesthetized with intraperitoneal sodium pentobarbital (50 mg/kg) and maintained with 1.5 to 2.0% inhaled isoflurane. Body temperature was maintained at 37° C. with a heating pad. The internal jugular vein was cannulated with a 20-gauge catheter for MB injection.

E-selectin = biological target: T1, E-selectin; assay: Ultrasound molecular imaging in rat myocardial ischemia-reperfusion model; format: in vivo; conditions: for Contrast enhancement of postischemic myocardium (in words): 4 h after reperfusion, 3 min after MB injection
Protocol: as §1
An open chest rat model of myocardial ischemia-reperfusion (n=6) was performed where the left anterior descending coronary artery was occluded for 15 minutes then reperfused. See, FIG. 11. At 4 hrs of reflow, the rat received separate i.v. injections of MBE-SEL or MBCTL (2.5×10^7 MBs). Triggered ultrasound imaging (8 MHz, MI 0.6, Sequoia CPS, Siemens) was performed 3 min after injection, followed by 5 destruction frames (MI 1.9) and a second imaging frame (MI 0.6) at 3.5 minutes. The videointensity difference between the two imaging frames was attributed to microbubble adhesion. See, FIG. 12.
as §2
A previously described rat model of acute myocardial ischemia and reperfusion was used for UMI of E-selectin overexpression as a marker of ischemic memory.^3 Anesthetized rats (n=6, 150-200 g) were intubated and mechanically ventilated. A lateral thoracotomy was performed, and the left anterior descending (LAD) coronary artery was occluded for 15 minutes and then reperfused. After 4 hours of reflow, each rat received separate intravenous injections of MBESEL, MBCTL, and MBIgG in random order (2.5×10^7 MBs in […] followed by a […]), and ultrasound imaging was performed as described below.
Thereafter, high mechanical index (MI) burst pulses were sent to ensure that all adhered and freely circulating MBs were destroyed prior to any subsequent injection. Typically, subsequent injections were given 5 minutes after MBs could no longer be detected in the left ventricular cavity on ultrasound imaging. The MB dosage was empirically chosen based on pilot studies assessing myocardial enhancement from various doses. At the end of the experiment, the LAD coronary artery was reoccluded, nontargeted myocardial contrast echocardiography (MCE) using plain lipid MBs was performed to delineate the risk area, and the rat was euthanized using pentobarbital overdose. Open-chest MCE in the short-axis view was performed using a contrast-specific imaging mode combining phase and amplitude modulation of the transmit signal (Cadence Contrast Pulse Sequencing, Sequoia 512, Siemens Ultrasound, Mountain View, Calif.) from a linear array transducer (15 L8) operating at 8 MHz. Probe position, dynamic range, gain settings, and focus were initially optimized and maintained constant. Ultrasound detection of bound MBs was performed using a previously described approach.^12,13 After 3 minutes to allow MB retention and washout of unbound MBs, end-systolic imaging was performed at an MI of 0.6, followed by an ultrasound burst pulse at MI of 1.9 to destroy the MBs and then end-systolic imaging 30 seconds later at MI 0.6. […]

[3] = biological target: T2, human E-selectin on TNFα-activated …; assay: in vitro flow chamber, TNFα-activated HUVEC
[4] = 4 h, 1×10^8 MB i.v., 5 min after injection
[5] = 15 min LAD occlusion, 4 h reflow, 2.5×10^7 MBs i.v., 3 min after injection

| Background-subtracted videointensity, postischemic (LAD) bed (E-selectin; [5]) | Background-subtracted videointensity, nonischemic bed (E-selectin; [5]) | Contrast enhancement of postischemic myocardium (in words) (E-selectin; listed as MBEsel) | Linear relationship, size of risk area vs size of region of persistent contrast enhancement (r) (E-selectin; y=0.98x-0.01) | binding result [3] | Molecule | MB adhesion to inflamed (activated) ECs [1] | MB adhesion to activated versus normal ECs (in words) [1] | MB adhesion to activated versus normal ECs (in words) ([1]; listed as MBcontrl) | MB adhesion to noninflamed (normal) ECs [1] | MB adhesion to inflamed microcirculation [2, 4] [MBs/field] | MB adhesion to normal or inflamed microcirculation (in words) [2] | Contrast enhancement of postischemic myocardium (in words) (E-selectin) | MB adhesion to activated versus normal ECs (in words) ([1]; listed as MBE-SEL) | MB adhesion to activated versus normal ECs (in words) ([1]; listed as MBEsel) | MB adhesion to inflamed microcirculation (Example II) ([2]; activated conditions (scrotal TNF 5μg)) [MB/field] | MB adhesion to non-inflamed microcirculation (Example II) ([2]; basal conditions) [MB/field] | MB adhesion to noninflamed microcirculation ([2]; saline intrascrotal, 4 h, 1×10^8 MB i.v., 5 min after injection) [MBs/field] |
| --- | --- | --- | --- | --- | --- | --- | --- | --- | --- | --- | --- | --- | --- | --- | --- | --- | --- |
| 4.0±1.0 dB and 4±1 dB |  |  |  |  | MBCTL: Control microbubbles linked to the 12-mer randomized AF10166 sequence (H2NWKLDTLDMIWQD-COOH) via biotin-streptavidin (also: linked to microbubbles via biotin-streptavidin, site not given here) [reference compound] | 4.1±0.6 MB/EC and 5±2 MB/EC | no difference | minimal adhesion | 4±1 MB/EC | 1.5±0.3 | minimal attachment; also recorded: minimal adhesion | not seen |  |  |  |  |  |
| 11.6±2.7 dB and 12±3 dB | 3.6±0.8 dB and 4±1 dB | higher | 0.92 |  | MBESEL: Double-layer albumin/PDLLA microbubbles conjugated with E-selectin targeting peptide AF10166 via biotin-streptavidin bridging chemistry (DITWDQLWDLMK; also: biotinylated, site not given here, on microbubble via biotin-streptavidin) | 17.4±1.8 MB/EC and 17±2 MB/EC |  |  | 5.9±3.4 MB/EC and 5±3 MB/EC | 4.8±1.2 | adhesion to inflamed circulation (arrows) but not to control, noninflamed circulation | persistent contrast enhancement of the previously ischemic LAD coronary artery territory | superior binding | greater adhesion | 96±23 | 34±8 | 1.7±0.4 |
|  |  |  |  | binds | C([BM(PEG)3-microbubble albumin shell])DITWDQLWDLMK (reading uncertain; also: thioether-conjugated to polymer/albumin microbubble, also called microbubble Esel(MAL); E-sel target MB (Mal)) |  |  |  |  |  |  |  |  |  |  |  |  |
|  |  |  |  | binds | DITWDQLWDLMK (also: biotinylated, site not given here, held on microbubble shell by biotin-streptavidin bridging, The peptide stood in the assays as many copies on a gas-filled microbubble (outer shell crosslinked human albumin, inner layer PDLLA); streptavidin and albumin shell are not; also called E-selectin targeted microbubble; MBEsel (biotin-streptavidin linker)) |  |  |  |  |  |  |  |  |  |  |  |  |
